pKi: −log10 of the molar value. Counter-ions that a name gives are not always drawn.
Target: purified CK2α enzyme (Homo sapiens, UniProt P68400)
Experiment: CK2 Protein Kinase Inhibition Assay (coupled PK/LDH assay)
Type: biochemical
Settings: CK2 enzyme 25 nM, 100 μM ATP, 37° C., Morrison equation
Protocol: A coupled PK (pyruvate kinase)/LDH (lactate dehydrogenase) assay was used to measure compounds' ability to inhibit purified CK2α enzyme.
The ADP product of kinase CK2a is the cofactor for PK. Phospho(enol)pyruvate (PEP) PEP is metabolized by pyruvate kinase to yield pyruvate, which is the substrate for LDH.
Serially diluted compounds were pre-incubated for 10 min at 37° C. with and 1.5 mM […] peptide substrate, 6 U/ml PK and 10 U/ml LDH (purchased from Sigma-Aldrich), 100 μM ATP, 1.2 mM NADH, 4 mM PEP in the reaction buffer (50 mM Tris (pH 8.25), 0.1 M NaCl, 10 mM magnesium acetate). The reaction was initiated by the addition of an equal volume of purified CK2 enzyme (final concentration 25 nM) diluted in the reaction buffer. Absorbance at 340 nm was measured overtime (for 30 min) at 37° C.; as NADH was converted to NAD+ the absorbance decreases. Absorbance decrease rate (per min) was plotted against the compound concentration and Ki is determined by GraphPad Prism using Morrison equation. All data points were performed in triplicate and each compound was tested in at least two separate experiments.
To this end, K, values of less than 2.5 nM are labelled as “+++”, from 2.5 nM to 10 nM are labelled as “++”, and greater than 10 nM are labelled as “+”.

Sequence of purified CK2α enzyme (P68400 whole entry): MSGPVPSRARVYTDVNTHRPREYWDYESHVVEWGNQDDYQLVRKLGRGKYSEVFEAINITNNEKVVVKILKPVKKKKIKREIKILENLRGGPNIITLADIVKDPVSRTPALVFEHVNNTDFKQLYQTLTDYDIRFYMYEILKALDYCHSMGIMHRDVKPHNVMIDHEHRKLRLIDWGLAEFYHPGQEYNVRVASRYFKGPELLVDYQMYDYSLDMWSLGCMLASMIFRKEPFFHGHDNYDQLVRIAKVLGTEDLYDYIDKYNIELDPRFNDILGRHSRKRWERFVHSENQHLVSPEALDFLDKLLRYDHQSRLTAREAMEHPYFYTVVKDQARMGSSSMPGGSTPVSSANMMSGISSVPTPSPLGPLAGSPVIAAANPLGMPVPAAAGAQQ

pKi	SMILES
> 8.60	C[S+]([O-])Cc1cc(Nc2cc(Nc3cccnc3)n3ncc(C#N)c3n2)ccc1C1CC1 (racemic) [Example 55, (±)-5-((4-Cyclopropyl-3-((methylsulfinyl)methyl)phenyl)amino)-7-(pyridin-3-ylamino)pyrazolo[1,5-a]pyrimidine-3-carbonitrile]
> 8.60	C[S+]([O-])Cc1cc(Nc2cc(Nc3ccc(N)nc3)n3ncc(C#N)c3n2)ccc1C1CC1 (racemic) [Example 56, (±)-7-((6-Aminopyridin-3-yl)amino)-5-((4-cyclopropyl-3-((methylsulfinyl)methyl)phenyl)amino)pyrazolo[1,5-a]pyrimidine-3-carbonitrile]
> 8.60	C[S+]([O-])Cc1cc(Nc2cc(Nc3ccc(N)cn3)n3ncc(C#N)c3n2)ccc1C1CC1 (racemic) [Example 57, (±)-7-((5-Aminopyridin-2-yl)amino)-5-((4-cyclopropyl-3-((methylsulfinyl)methyl)phenyl)amino)pyrazolo[1,5-a]pyrimidine-3-carbonitrile]
8.00 to 8.60	CC(N)c1ccc(Nc2cc(NC3CC3)n3ncc(C#N)c3n2)cc1C[S+](C)[O-] (racemic) [Example 58, (±)-5-((4-((R,S)-1-Aminoethyl)-3-((methylsulfinyl)methyl)phenyl)amino)-7-(cyclopropylamino)pyrazolo[1,5-a]pyrimidine-3-carbonitrile mono trifluoroacetic acid salt]
8.00 to 8.60	C[S+]([O-])Cc1cc(Nc2cc(NC3CC3)n3ncc(C#N)c3n2)ccc1C1(N)CC1 (racemic) [Example 59, (±)-5-((4-(1-Aminocyclopropyl)-3-((methylsulfinyl)methyl)phenyl)amino)-7-(cyclopropylamino)pyrazolo[1,5-a]pyrimidine-3-carbonitrile mono trifluoroacetic acid salt]
> 8.60	C/C(=C\CN)c1ccc(Nc2cc(NC3CC3)n3ncc(C#N)c3n2)cc1C[S+](C)[O-] (racemic) [Example 60, (±)-(E)-5-((4-(4-aminobut-2-en-2-yl)-3-((methylsulfinyl)methyl)phenyl)amino)-7-(cyclopropylamino)pyrazolo[1,5-a]pyrimidine-3-carbonitrile mono trifluoroacetic acid salt]
8.00 to 8.60	C[S+]([O-])Cc1cc(Nc2cc(NC3CC3)n3ncc(C#N)c3n2)ccc1C1CCCNC1 (racemic) [Example 61, (±)-7-(Cyclopropylamino)-5-((3-((methylsulfinyl)methyl)-4-((R,S)-piperidin-3-yl)phenyl)amino)pyrazolo[1,5-a]pyrimidine-3-carbonitrile mono trifluoroacetic acid salt]
8.00 to 8.60	C[S+]([O-])Cc1cc(Nc2cc(NC3CC3)n3ncc(C#N)c3n2)ccc1C1=CCNC1 (racemic) [Example 62, (±)-7-(Cyclopropylamino)-5-((4-(2,5-dihydro-1H-pyrrol-3-yl)-3-((methylsulfinyl)methyl)phenyl)amino)pyrazolo[1,5-a]pyrimidine-3-carbonitrile mono trifluoroacetic acid salt]
8.00 to 8.60	C[S+]([O-])Cc1cc(Nc2cc(NC3CC3)n3ncc(C#N)c3n2)ccc1C1CCNC1 (racemic) [Example 63, (±)-7-(Cyclopropylamino)-5-((3-((methylsulfinyl)methyl)-4-((R,S)-pyrrolidin-3-yl)phenyl)amino)pyrazolo[1,5-a]pyrimidine-3-carbonitrile mono trifluoroacetic acid salt]
8.00 to 8.60	CC(CCN)c1ccc(Nc2cc(NC3CC3)n3ncc(C#N)c3n2)cc1C[S+](C)[O-] (racemic) [Example 64, (±)-5-((4-(R,S)-4-Aminobutan-2-yl)-3-((methylsulfinyl)methyl)phenyl)amino)-7-(cyclopropylamino)pyrazolo[1,5-a]pyrimidine-3-carbonitrile mono trifluoroacetic acid salt]
> 8.60	CN(CC1(N)CC1)c1ccc(Nc2cc(NC3CC3)n3ncc(C#N)c3n2)cc1C[S+](C)[O-] (racemic) [Example 65, (±)-5-((4-(((1-Aminocyclopropyl)methyl)(methyl)amino)-3-((methylsulfinyl)methyl)phenyl)amino)-7-(cyclopropylamino)pyrazolo[1,5-a]pyrimidine-3-carbonitrile mono trifluoroacetic acid salt]
> 8.60	CN(CC(C)(C)N)c1ccc(Nc2cc(NC3CC3)n3ncc(C#N)c3n2)cc1C[S+](C)[O-] (racemic) [Example 67, (±)-5-((4-((2-Amino-2-methylpropyl)(methyl)amino)-3-((methylsulfinyl)methyl)phenyl)amino)-7-(cyclopropylamino)pyrazolo[1,5-a]pyrimidine-3-carbonitrile mono trifluoroacetic acid salt]
> 8.60	C[S+]([O-])Cc1cc(Nc2cc(Nc3ccc(N)cn3)n3ncc(C#N)c3n2)ccc1N1CC[C@H](N)C1 (mixture of isomers) [Example 68, (±)-7-((5-Aminopyridin-2-yl)amino)-5-((4-((S)-3-aminopyrrolidin-1-yl)-3-((methylsulfinyl)methyl)phenyl)amino)pyrazolo[1,5-a]pyrimidine-3-carbonitrile]
> 8.60	CN(C)Cc1ccc(Nc2cc(Nc3ccc(C4CC4)c(C[S+](C)[O-])c3)nc3c(C#N)cnn23)nc1 (racemic) [Example 69, (±)-5-((4-Cyclopropyl-3-((methylsulfinyl)methyl)phenyl)amino)-7-((5-((dimethylamino)methyl)pyridin-2-yl)amino)pyrazolo[1,5-a]pyrimidine-3-carbonitrile]
> 8.60	CS(=O)(=O)Cc1cc(Nc2cc(NC3CC3)n3ncc(C#N)c3n2)ccc1Cl [Example 2, 5-((4-Chloro-3-((methylsulfonyl)methyl)phenyl)amino)-7-(cyclopropylamino)pyrazolo[1,5-a]pyrimidine-3-carbonitrile]
8.00 to 8.60	C[S@@+]([O-])Cc1cc(Nc2cc(NC3CC3)n3ncc(C#N)c3n2)ccc1Cl [Example 4, (R)(−)-5-((4-Chloro-3-((methylsulfinyl)methyl)phenyl)amino)-7-(cyclopropylamino)pyrazolo[1,5-a]pyrimidine-3-carbonitrile]
> 8.60	CS(=O)(=O)Cc1cc(Nc2cc(NC3CC3)n3ncc(C#N)c3n2)ccc1C#N [Example 9, 5-((4-Cyano-3-((methylsulfonyl)methyl)phenyl)amino)-7-(cyclopropylamino)pyrazolo[1,5-a]pyrimidine-3-carbonitrile]
> 8.60	CN(CCN)c1ccc(Nc2cc(NC3CC3)n3ncc(C#N)c3n2)cc1CS(C)(=O)=O [Example 10, 5-((4-((2-Aminoethyl)(methyl)amino)-3-((methylsulfonyl)methyl)phenyl)amino)-7-(cyclopropylamino)pyrazolo[1,5-a]pyrimidine-3-carbonitrile mono trifluoroacetic acid salt]
> 8.60	CS(=O)(=O)Cc1cc(Nc2cc(NC3CC3)n3ncc(C#N)c3n2)ccc1CCN [Example 11, 5-((4-(2-Aminoethyl)-3-((methylsulfonyl)methyl)phenyl)amino)-7-(cyclopropylamino)pyrazolo[1,5-a]pyrimidine-3-carbonitrile mono trifluoroacetic acid salt]
> 8.60	C[S+]([O-])Cc1cc(Nc2cc(NC3CC3)n3ncc(C#N)c3n2)ccc1N1CC[C@@H](N)C1 (stereo partly drawn) [Example 22, 5-((4-((R)-3-Aminopyrrolidin-1-yl)-3-(((R,S)-methylsulfinyl)methyl)phenyl)amino)-7-(cyclopropylamino)pyrazolo[1,5-a]pyrimidine-3-carbonitrile mono trifluoroacetic acid salt]
> 8.60	C[S+]([O-])Cc1cc(Nc2cc(NC3CC3)n3ncc(C#N)c3n2)ccc1N1CC[C@H](N)C1 (stereo partly drawn) [Example 23, 5-((4-((S)-3-Aminopyrrolidin-1-yl)-3-(((R,S)-methylsulfinyl)methyl)phenyl)amino)-7-(cyclopropylamino)pyrazolo[1,5-a]pyrimidine-3-carbonitrile mono trifluoroacetic acid salt]
> 8.60	C[S+]([O-])Cc1cc(Nc2cc(NC3CC3)n3ncc(C#N)c3n2)ccc1N1CCC[C@@H](N)C1 (stereo partly drawn) [Example 24, 5-((4-((R)-3-Aminopiperidin-1-yl)-3-(((R,S)-methylsulfinyl)methyl)phenyl)amino)-7-(cyclopropylamino)pyrazolo[1,5-a]pyrimidine-3-carbonitrile mono trifluoroacetic acid salt]
> 8.60	C[S+]([O-])Cc1cc(Nc2cc(NC3CC3)n3ncc(C#N)c3n2)ccc1N1CCC[C@H](N)C1 (stereo partly drawn) [Example 25, 5-((4-((S)-3-Aminopiperidin-1-yl)-3-(((R,S)-methylsulfinyl)methyl)phenyl)amino)-7-(cyclopropylamino)pyrazolo[1,5-a]pyrimidine-3-carbonitrile mono trifluoroacetic acid salt]
> 8.60	CS(=O)(=O)Cc1cc(Nc2cc(NC3CC3)n3ncc(C#N)c3n2)ccc1N1CC[C@H](N)C1 [Example 29, (S)-5-((4-(3-aminopyrrolidin-1-yl)-3-((methylsulfonyl)methyl)phenyl)amino)-7-(cyclopropylamino)pyrazolo[1,5-a]pyrimidine-3-carbonitrile mono trifluoroacetic acid salt]
> 8.60	CN(C)c1ccc(Nc2cc(NC3CC3)n3ncc(C#N)c3n2)cc1CS(C)(=O)=O [Example 34, 7-(Cyclopropylamino)-5-((4-(dimethylamino)-3-((methylsulfonyl)methyl)phenyl)amino)pyrazolo[1,5-a]pyrimidine-3-carbonitrile]

From US10227344B2, “CK2 inhibitors, compositions and methods thereof” (Polaris Pharmaceuticals, Inc., priority 2016, dated 2019)
